# Experimental data taken from paper PMC8495455, “Discovery of a transdermally deliverable pentapeptide for activating AdipoR1 to promote hair growth” (EMBO Molecular Medicine, 2021).
# Tests used:
# HGF mRNA = assay: qRT-PCR growth factor gene expression in DP cells, HGF; format: cell-based, human; conditions: for mRNA_HGF: DP cells
# Excerpt: (§1) Next, we investigated the downstream effects of P5 on hair growth factor genes and proteins in DP cells. […] We tested whether P5 can also increase the mRNA levels and proteins of hair growth factors in DP cells: IGF‐1, VEGF, HGF, platelet‐derived growth factor alpha (PDGFA), and fibroblast growth factor (FGF) 7, which are known to induce or maintain the anagen phase of the hair cycle (Jindo et al, [1994]; Philpott et al, [1994]; Yano et al, [2001]; Jang, [2005]; Tomita et al, [2006]; Iino et al, [2007]).
# Total RNA was isolated from P5‐treated DP cells using RNAiso Plus (#9109; TaKaRa). We used the total RNA (1 µg) for cDNA synthesis using a RevertAid First Strand cDNA Synthesis Kit (Thermo Fisher) according to the manufacturer's instructions. The mRNA expression levels were quantified on a 7500 Real‐time PCR System (Thermo Fisher) using TB Green Premix Ex Taq (TaKaRa Bio): human IGF‐1, VEGF, HGF, PDGFA, FGF7, and glyceraldehyde 3‐phosphate dehydrogenase (GAPDH) (Appendix Table S2). The relative expression levels of each gene were determined by the 2^‐ΔΔCT method.
# HGF protein = assay: Growth factor protein quantitation in DP cell medium, HGF; format: cell-based, human; conditions: for protein_HGF: DP cell medium
# Excerpt: as §1
# Human DP cells were grown on a 100‐mm cell culture dish to 100% confluency. After washed by PBS three times, the cells were cultured with serum‐free DMEM and treated with P5. After 48 h, the medium was collected and filtered by a […]. The filtrate was then concentrated using a centrifugal concentrator (Vivaspin 6, 10‐kDa molecular weight cutoff, centrifuged 2,600 g at 4°C for 13 min, Sartorius Stedim Biotech). The signals of each protein in the concentrated media were detected and quantified, based on the enzyme‐linked immunosorbent assay (Human Cytokine Antibody Array C2000, RayBiotech).
# C57BL/6 (WT) mice = assay: Mouse hair cycle modulation, hair cycle score, WT mice; format: in vivo; conditions: for Gross morphology of dorsum: topical
# Excerpt: First, we topically applied P5 and minoxidil as a positive control (Messenger & Rundegren, [2004]) on wildtype (WT) mouse. […] Overall, the hair cycle score was higher in the P5‐treated mice than vehicle‐treated mice (Fig 4B). […] Collectively, P5 induces anagen hair cycle in vivo.
# For the hair cycle modulation experiment, Adipoq ^−/− (stock #008195; JAX) (Ma et al, [2002]), Adipor1 ^−/− (Yamauchi et al, [2007]; Okada‐Iwabu et al, [2013]), or C57BL/6 (KOATECH) female mice was used (Müller‐Röver et al, [2001]). They were housed (up to four animals per cage; 23 ± 2°C, 8:00–20:00, 12 h/12 h light/dark cycle). Mice were fed a standard chow diet and provided food and water ad libitum. Mice were randomly allocated and shaved dorsally at 7.5 weeks of age. Only mice in telogen were included for the further experiments (Müller‐Röver et al, [2001]). From 8 weeks of age, the shaved dorsal area was treated with vehicle control (ethanol and polyethylene glycol, 30% and 70% v/v), P5 (0.1 mM), or minoxidil (3%) every day. The mouse hair growth score (a value from 0 to 100 based on the skin pigmentation and hair shaft density) was monitored and documented at designated days with the experimenters being blind to the conditions, following a previous study (Chai et al, [2019]). A higher score corresponds to a transition from telogen to anagen. On day 35, we obtained dorsal cutaneous tissue for histological analysis: anagen induction scores (calculated using an assigned arbitrary score; telogen = 1, anagen I–VI = 2–7) (Müller‐Röver et al, [2001]).
# [1] = Transdermal delivery in ex vivo human skin tissue culture, qualitative MS of dermal lysate; format: in vitro ADME; conditions: 50 mM in DMSO placed daily, 5 days, 37°C, dermal lysate in 50% methanol
# Excerpt: Next, we checked whether topically applied P5 can be delivered into human skin using ex vivo skin tissue culture model (Fig EV4A) (Haslam et al, [2018]). After topical application of vehicle or P5 on the ex vivo skin tissue, the dermal lysate of each tissue was examined by the qualitative mass spectrometry (MS). […] To trace the origin of P5, we used isotope‐marked P5 (P5*), in which carbon (^12C) atoms of Gly were substituted with isotope carbon atoms (^13C) increasing the molecular weight by 2 compared to that of original P5 (Fig EV4B). […] Collectively, P5 can be transdermally delivered into human skin.
# Topical application of peptides on ex vivo skin study was performed as described previously (Haslam et al, [2018]). Briefly, full thickness skin tissue from cadavers within 48 h after death was acquired and biopsied using a 6 mm punch. The skin tissue was acclimatized in supplemented Williams’ E media with L‐glutamine (2 mM), penicillin‐streptomycin solution (1×), hydrocortisone (10 ng/ml), and insulin (100 ng/ml) overnight at 37°C in a 5% CO2 atmosphere. After acclimatization, the skin tissue was carefully pulled through a cell strainer with the epidermis exposed to the air, leaving the dermis submerged in the culture media. […] The lysate was qualitatively analyzed by a MS system (API 4000 Q‐trap; AB SCIEX).
# [2] = P5 5μM, relative to Control = 1, replicate 1
# [3] = P5 5μM, relative to Control = 1, replicate 2
# [4] = P5 5μM, relative to Control = 1, replicate 3
# [5] = P5 25μM, relative to Control = 1, replicate 1
# [6] = P5 25μM, relative to Control = 1, replicate 2
# [7] = P5 25μM, relative to Control = 1, replicate 3
substance,measurement,setting,value
"GLYYF [P5, GST-fused (GST-P5) in pulldown assays]",mRNA_HGF,HGF mRNA; [2],3.441
same,mRNA_HGF,HGF mRNA; [3],1.115
same,mRNA_HGF,HGF mRNA; [4],3.233
same,mRNA_HGF,"HGF mRNA; P5 5μM, relative to Control = 1, replicate 4",5.51
same,mRNA_HGF,"HGF mRNA; P5 5μM, relative to Control = 1, replicate 5",1.947
same,mRNA_HGF,"HGF mRNA; P5 5μM, relative to Control = 1, replicate 6",1.893
same,mRNA_HGF,HGF mRNA; [5],6.428
same,mRNA_HGF,HGF mRNA; [6],1.581
same,mRNA_HGF,HGF mRNA; [7],2.359
same,mRNA_HGF,"HGF mRNA; P5 25μM, relative to Control = 1, replicate 4",5.518
same,mRNA_HGF,"HGF mRNA; P5 25μM, relative to Control = 1, replicate 5",2.408
same,mRNA_HGF,"HGF mRNA; P5 25μM, relative to Control = 1, replicate 6",2.218
same,HGF mRNA expression,"HGF mRNA; P5-treated DP cells, n = 6",significantly increased
same,protein_HGF,HGF protein; [2],1.103
same,protein_HGF,HGF protein; [3],1.31
same,protein_HGF,HGF protein; [4],1.677
same,protein_HGF,HGF protein; [5],1.711
same,protein_HGF,HGF protein; [6],2.432
same,protein_HGF,HGF protein; [7],3.924
same,HGF protein expression level,"HGF protein; P5-treated DP cells, 48 h medium, n = 3",elevated
same,Hair cycle score vs vehicle,"C57BL/6 (WT) mice; n = 16 mice/group, Two-way ANOVA",higher
same,Gross morphology of dorsum,C57BL/6 (WT) mice; day 14,obvious pigmentation and hair
same,Gross morphology of dorsum,C57BL/6 (WT) mice; day 35,manifested a black hair coat
same,Detection in skin dermis after topical application (transdermal delivery),[1],qualitatively detected
